Tests used:
[1] = test system: HeLa; test: Cytotoxicity against human HeLa cells assessed as growth inhibition; assay type: functional, cell-based
[2] = test system: Pyricularia oryzae; test: Antifungal activity against Pyricularia oryzae kita-1 assessed as growth inhibition; assay type: functional, organism-based
[3] = test system: Staphylococcus aureus; test: Antibacterial activity against Staphylococcus aureus 209 assessed as growth inhibition; assay type: functional, organism-based
[4] = test system: T98G; test: Cytotoxicity against human T98G cells assessed as growth inhibition; assay type: functional, cell-based
[5] = test system: Escherichia coli; test: Antibacterial activity against Escherichia coli HO141 assessed as growth inhibition; assay type: functional, organism-based
[6] = test system: Plasmodium falciparum; test: Antimalarial activity against wild-type Plasmodium falcipuram 3D7 assessed as growth inhibition; assay type: functional, organism-based
[7] = test system: MKN-74; test: Cytotoxicity against human MKN74 cells assessed as growth inhibition; assay type: functional, cell-based
[8] = test system: Candida albicans; test: Antifungal activity against Candida albicans JCM1542 assessed as growth inhibition; assay type: functional, organism-based
[9] = test system: Aspergillus fumigatus; test: Antifungal activity against Aspergillus fumigatus Af293 assessed as growth inhibition; assay type: functional, organism-based
[10] = test system: HL-60; test: Cytotoxicity against human HL-60 cells assessed as growth inhibition; assay type: functional, cell-based
[11] = test system: Plasmodium falciparum; test: Antimalarial activity against chloroquine-resistant Plasmodium falcipuram K1 assessed as growth inhibition; assay type: functional, organism-based

Row | SMILES | IC50 [1] [µM] | IC50 [2] [µM] | IC50 [3] [µM] | IC50 [4] [µM] | IC50 [5] [µM] | IC50 [6] [µM] | IC50 [7] [µM] | IC50 [8] [µM] | IC50 [9] [µM] | IC50 [10] [µM] | IC50 [11] [µM]
1 | C\C=C(/C=C(C)/C=C/C=C/C=C(\C)C(O)[C@]12O[C@H]1[C@@](O)(CCO)NC2=O)C(=O)OC (some centres not stated) | > 70 | > 70 | > 70 | > 70 | > 70 | 62.1 | > 70 | > 70 | > 70 | > 70 | –
2 | C\C=C(/C=C(C)/C=C/C=C/C=C(\C)C(=O)[C@]12O[C@H]1[C@@](O)(CCO)NC2=O)C(=O)OC | 14.1 | > 70 | > 70 | – | > 70 | 1.8 | – | > 70 | > 70 | 15.8 | –
3 | C\C=C(/C=C(C)/C=C/C=C/C=C(\C)C(=O)[C@@]1(O)C(=O)N[C@]2(O)CCO[C@H]12)C(=O)OC | > 70 | – | – | – | – | 0.67 | – | – | – | > 70 | –
4 | CC(=O)O[C@H]1C(=O)[C@@]2(C)[C@H]([C@H](OC(=O)c3ccccc3)[C@]3(O)C[C@H](OC(=O)[C@H](O)[C@@H](NC(=O)c4ccccc4)c4ccccc4)C(C)=C1C3(C)C)[C@]1(OC(C)=O)CO[C@@H]1C[C@@H]2O [PACLITAXEL] | 0.0043 | – | – | 8.7 | – | – | – | – | – | 0.0022 | –
5 | C[C@@H]1[C@H](O)[C@@H](C)/C=C/C=C/C=C/C=C/C=C/C=C/C=C/[C@H](O[C@@H]2O[C@H](C)[C@@H](O)[C@H](N)[C@@H]2O)C[C@@H]2O[C@](O)(C[C@@H](O)C[C@@H](O)[C@H](O)CC[C@@H](O)C[C@@H](O)CC(=O)O[C@H]1C)C[C@H](O)[C@H]2C(=O)O [AMPHOTERICIN B] | – | 0.16 | – | – | – | – | – | 0.03 | 0.21 | – | –
6 | C\C=C(/C=C(C)/C=C/C=C/C=C(\C)C(=O)[C@H]1C(=O)N[C@]2(O)CCO[C@H]12)C(=O)O | > 70 | > 70 | > 70 | – | > 70 | 43.9 | – | > 70 | > 70 | > 70 | –
7 | C\C=C(/C=C(C)/C=C/C=C/C=C(\C)C(=O)[C@H]1C(=O)N[C@]2(O)CCO[C@H]12)C(=O)OC | 24.9 | > 70 | > 70 | – | > 70 | 0.15 | – | > 70 | > 70 | 17.4 | –
8 | C[C@@H]1CC[C@H]2[C@@H](C)C(=O)O[C@@H]3O[C@@]4(C)CC[C@@H]1[C@]32OO4 [ARTEMISININ] | – | – | – | – | – | 0.019 | – | – | – | – | –
9 | C\C=C(/C=C(C)/C=C/C=C/C=C(\C)C(=O)C1C[C@@](O)(CCO)NC1=O)C(=O)OC (some centres not stated) | 21.5 | 6.7 | > 70 | > 70 | > 70 | 0.0015 | > 70 | > 70 | > 70 | 37.7 | 0.0015
10 | O=C(N[C@H](CO)[C@H](O)c1ccc([N+](=O)[O-])cc1)C(Cl)Cl [CHLORAMPHENICOL] | – | – | 5.4 | – | 4.6 | – | – | – | – | – | –
